Read-outs that look alike come from different tables or passages of the source.
Columns and labels:
hMT1 [1] = target: T1, hMT1 (Homo sapiens, UniProt P48039); experiment: cAMP assay (GloSensor), isoproterenol-stimulated cAMP in HEK cells; type: cell-based; parameters: expressed in transfected cells; host or cells: HEK-T (HEK-293 T) cells, co-transfected with GloSensor DNA; details: for hMT1 pEC50: FIG. 3D-3F, transiently expressed receptor, isoproterenol-stimulated cAMP production; for inverse agonist efficacy: at MT1; for selectivity for MT1 over MT2: cAMP, inverse agonists
T1 sequence (P48039 whole entry): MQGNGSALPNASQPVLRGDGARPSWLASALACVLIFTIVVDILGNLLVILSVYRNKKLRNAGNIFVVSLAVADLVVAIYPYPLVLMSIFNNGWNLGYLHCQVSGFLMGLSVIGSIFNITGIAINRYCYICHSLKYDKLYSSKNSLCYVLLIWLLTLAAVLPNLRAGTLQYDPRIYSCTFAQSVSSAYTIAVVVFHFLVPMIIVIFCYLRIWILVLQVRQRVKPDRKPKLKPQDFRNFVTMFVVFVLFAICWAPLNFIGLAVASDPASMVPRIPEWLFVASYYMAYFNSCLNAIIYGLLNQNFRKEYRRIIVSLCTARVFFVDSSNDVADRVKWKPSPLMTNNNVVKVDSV
Method: HEK-293 T cells were maintained with complete Dulbecco's modified Eagle's medium (DMEM), which is composed of 10% fetal bovine serum (FBS), 2 mM L-glutamine, 100 units/ml penicillin G, 100 μg/ml streptomycin at 37° C. in the presence of 5% CO2
MT1 and MT2 receptors were tested using Promega's spilt luciferase based GboSensor cAMP biosensor technology. HEK-T cells were plated in 15 cm cell culture dish (at a density of 18 million cells) containing DMEM composed of 10% dialyzed FBS, 2 mM L-glutamine, 100 units/ml penicillin G, 100 μg/ml streptomycin for 4-6 hour. Then, cells were co-transfected with 8 μg of construct which encodes either MT1 or MT2 (de-Tangonized constructs) and […] of Glosensor DNA. Next day, transfected cells were seeded into poly-L-lysinecoated 384-well white clear bottom cell culture plates with complete DMEM with 1% dialized FBS at a density of 20,000 cells per well for another 24 h. The next day, cell medium were discarded and loaded with 20 μl of assay buffer (1×HBSS, 20 mM HEPES, pH 7.4, 0.1% BSA). To measure agonist activity of MT1 or MT2 receptor, 10 μl of test compound solution at 3× final concentration was added for 15 minutes followed by addition of 10 μl of luciferin/isoproterenol mixture (at a final concentration of 4 mM and 200 nM respectively) for another 15 mins for luminescence quantification. Then, plates were counted using SpectraMax luminescence reader (Molecular Device). Data were analyzed using GraphPad Prism 6.0.

hMT2 = experiment: 2-[125I]-iodomelatonin competition binding, CHO cell membranes; details: in 2-[125I]-iodomelatonin binding assays
Method: (§1) For receptor binding studies, '7447 was dissolved in 50% DMSO/50% ethanol for 13 mM stock solution, diluted 1/10 in 100% ethanol then 1/10 again in 50% ethanol/50% Tris-HCl buffer. Both '3384 and '4226 were dissolved in 100% ethanol for 13 mM stock solutions and then diluted 1/10 in 50% ethanol/50% Tris-HCl buffer. Further dilutions were done in Tris-HCl buffer.
(§2) Assays were incubated for 1 hour at 25° C. Bound radioligand was separated from freeby rapidvacuum filtration using glass microfiber filters (Whatman, Krackeler Scientific, Inc., Albany N.Y., USA) saturated in 0.5% polyethylenimine solution.
(§3) Affinity shifts or lack thereof with G protein inactivation indicate apparent efficacy (Lefkowitz, R. J. et al., J Biol Chem 251, 4686-4692, 1976) as ligands are classified as agonists (ΔpKi% MLT>20%), antagonists (ΔpKi% MLT<20%, >−20%), or inverse agonists (ΔpKi% MLT<−20%) accordingly.

hMT1 [2] = target: T1, hMT1; experiment: as above; details: read-out: Ki at MT1
Method: as §1, §2, §3

318 other GPCRs = experiment: PRESTO-Tango GPCR-ome counter-screen, agonist mode; type: cell-based; details: arrestin recruitment Tango, in words
Method: Screening of compounds in the PRESTO-Tango GPCR-ome was accomplished as previously described (Kroeze, supra). with several modifications. First, HTLA cells were plated in DMEM with 10% FBS and 10 U/mL penicillin-streptomycin. Next, the cells were transfected using an in-plate PEI method (Longo, P. A. et al., Methods Enzymol 529, 227-240, 2013). PRESTO-Tango receptor DNAs were resuspended in OptiMEM and hybridized with PEI prior to dilution and distribution to 384-well plates and subsequent addition to cells. After overnight incubation, drugs were added to cells without replacement of the medium. The remaining steps of the PRESTO-Tango protocol were followed as previously described.

C3H/HeN mice = experiment: Re-entrainment of running wheel activity after 6 h advance of dark onset (jet-lag model); type: in vivo; details: 30 μg/mouse s.c., in words; for rate of re-entrainment to the new light-dark cycle: 3 days, WT
From the text: Male and female C3H/HeN (C3H) wild-type (WT), MT1 knockout (MT1KO), and MT2 knockout (MT2KO) mice (average 6.28 months) used in this study were raised in our breeding colony at University at Buffalo. […] Genotype was confirmed using tail samples at the end of each experiment and was verified periodically during the tenure of the colony. The strains of mice in our breeding colony were re-derived periodically by backcrossing with WT mice to reduce genetic drift.
Mice were group housed (3-5 per cage) with corncob bedding in polycarbonate translucent cages (30×19 cm) and maintained in a 14/10 light-dark (LD) cycle (Zeitgeber time 0 or ZT0 corresponds to Lights ON and ZT 14 to Lights OFF) in temperature and humidity controlled rooms with ad libitum access to food and water in the Laboratory Animal Facility at the University at Buffalo. Light levels were 200-300 lux at the level of the cage. Treatments and animal care performed in the dark were under a dim red safelight (15 watts, Kodak 1A filter) with illuminance of less than 3-5 lux (Benloucif, S. & Dubocovich, M. L. J Biol Rhythms 11, 113-125, (1996). All experimental procedures using mice were conducted in accordance with guidelines set forth by the National Institutes of Health and approved by the University at Buffalo Institutional Animal Care and Use Committee.
Circadian rhythm phase was determined for each mouse using the onset of running wheel activity defined as CT12 (Circadian Time 12). Running wheel activity was measured continuously via magnetic microswitches detecting wheel revolutions with a computer equipped with Clocklab data collection Software™ (Actimetrics: Wilmette, Ill.). All actigraphy data was visualized and analyzed using ClockLab™ and MATLAB™ software. All mice were individually housed in cages (33×15 cm) equipped with running wheels in light-tight ventilated cabinets with controlled temperature and LD cycles (Phenome Technologies: Skokie, Ill.). Male and female mice were housed in separate cabinets for all experiments.
Male and female C3H WT, MT1KO, and MT2KO mice (3 to 6 months) were maintained under a 12:12 LD cycle for at least 2 weeks prior experimental manipulations to allow stable entrainment to dark onset before advance of the LD cycle. Actigraphy data was recorded as described above and all experiment protocols performed as described (Dubocovich, M. L. et al., J Pineal Res 39, 113-120, 2005). On the first day of treatment, the dark onset was advanced 6 h. […] Post treatment, mice were given 14-20 days to re-entrain running wheel activity onsets to the new dark onset. Using exported running wheel activity onsets from actograms, onset hours advanced each day were determined by subtracting this value each day from the average onset of running wheel activity for 3 days prior to treatment for each mouse. Further, using the data from this calculation combined with visualization of actograms, the number of days to reach stable re-entrainment was determined for each mouse.
All statistical analyses as described in further detail for each experiment were conducted using GraphPad Prism 8™ (La Jolla, Calif.). All data sets were visualized for normality using QQ plots of predicted vs. actual residuals. Actigraphy data was generated for visualization blind to treatment prior to the quantification and statistical analysis stages. […] Data in FIGS. 4F & 4G were compared via a two-way ANOVA (3×2: genotype x treatment) with Tukey's post hoc analyses (P<0.05). […]

[3] = Schild analysis, competitive antagonism of melatonin
[4] = inverse agonist, increase of basal cAMP, read-out: EC50 at MT1

| Structure (SMILES) | hMT1 pEC50 (hMT1 [1]) | hMT1 Schild slope (hMT1 [1]; [3]) | inverse agonist efficacy (hMT1 [1]) | selectivity for MT1 over MT2 (hMT1 [1]) | EC50 (hMT1 [1]; [4]) | Ki (hMT1 [2]; in the absence of GTP) | Ki (hMT1 [2]; with GTP (100 μM)) | off-target agonist activity (318 other GPCRs) | rate of re-entrainment to the new light-dark cycle (C3H/HeN mice) | further results |
| --- | --- | --- | --- | --- | --- | --- | --- | --- | --- | --- |
| COc1ccc(Br)c(CNc2cccnc2)c1 [ZINC128734226] | 6.83±0.17 | – | – | – | – | – | – | – | – | Emax (hMT1 [1]; HEK293, FIG. 3F, normalized to maximal melatonin effect, read-out: hMT1 Emax): 79 ± 3%; Emax (hMT1 [1]; HEK293, Table 2, agonist, normalized to melatonin response, read-out: MT1 % Emax (converted)): 79%; Emax (hMT1 [1]; HEK293, Table 4, agonist, read-out: Emax % MT1): 48%; pIC50 MT1 (hMT1 [1]; Table 4, agonist): 6.8; MT2/MT1 selectivity (hMT2): 54 |
| Clc1ccc(CNc2cccc(-c3nnc[nH]3)c2)c(Br)c1 [ZINC555417447] | 7.39±0.10 | 0.98±0.03 | 62% | 50 fold | 41 nM | 304 nM | 7.5 nM | Neither of the two inverse agonists had significant activity against any of the 318 receptors | decelerated re-entrainment | Emax (hMT1 [1]; HEK293, FIG. 3D-3E, normalized to isoproterenol-stimulated basal activity, read-out: hMT1 Emax): -62 ± 13%; Emax (hMT1 [1]; HEK293, Table 2, cell marked Inverse (inverse agonist), read-out: MT1 % Emax (converted)): 62%; hMT1 pKB (hMT1 [1]; [3]): 7.4±0.1; EC50 (hMT1 [1]; Table 4, IA (inverse agonist), read-out: pEC50 MT1 (IA) (converted)): 50.1 nM; effect on re-entrainment in MT1KO mouse (C3H/HeN mice; MT1KO): eliminated; effect on re-entrainment in MT2KO mice (C3H/HeN mice; MT2KO): greater deceleration |
| CC(C)c1ccc(CNc2cccc(-c3ncn[nH]3)c2)cc1 [ZINC157673384] | 7.68±0.09 | 0.80±0.04 | 47% | 30 fold | 21 nM | 938 nM | 63 nM | Neither of the two inverse agonists had significant activity against any of the 318 receptors | decelerated re-entrainment | hMT1 Emax (hMT1 [1]; FIG. 3D-3E, normalized to isoproterenol-stimulated basal activity): −47±12%; hMT1 pA2 (hMT1 [1]; [3]): 7.9±0.1; MT1 % Emax (hMT1 [1]; Table 2, cell marked Inverse (inverse agonist)): 47 ± 12%; pEC50 MT1 (IA) (hMT1 [1]; Table 4, IA (inverse agonist)): 7.7 |

— patent publication US20230052740A1, “MODULATORS OF CIRCADIAN RHYTHMS AND USES THEREOF” (The Regents of the University of California, priority 2019, published 2023)
